Test results taken from paper PMC7226045, “Ensartinib (X-396) Effectively Modulates Pharmacokinetic Resistance Mediated by ABCB1 and ABCG2 Drug Efflux Transporters and CYP3A4 Biotransformation Enzyme” (Cancers, 2020).
Read-outs that look alike come from different tables or passages of the source.

Tests used:
[1] = test system: HepG2-CYP3A4 cells; experiment: Docetaxel combination assay (MTT), HepG2-CYP3A4; assay type: cell-based, human; settings: 1 µM docetaxel
Method: (§1) MTT proliferation assay was performed as described previously.
(§2) Cell viability was measured after a 48 h incubation using the MTT method as described above. […] Sensitization effects of < 0%, 0%, and >0% indicate antagonism, additivity, and synergism, respectively.

[2] = test system: MDCKII-parent cells; experiment: MTT proliferation / drug combination assay, MDCKII-parent; assay type: cell-based, canine; settings: Canis lupus familiaris, 48 h
Method: as §1

[3] = test system: MDCKII-ABCB1 cells; experiment: MTT proliferation / drug combination assay, MDCKII-ABCB1; settings: Canis lupus familiaris, 48 h
Method: MTT proliferation assay was performed as described previously. Cells were seeded on a 96-well culture plate at densities (in units of cells/well) of 1.3 × 10^4 for MDCKII-par, MDCKII-ABCB1, MDCKII-ABCG2, and MDCKII-ABCC1; 1.2 × 10^4 for A431-par, A431-ABCB1, A431-ABCG2 and A431-ABCC1; 1.2 × 10^4 for NCI-H1299; 2.0 × 10^4 for Caco-2; 5.0 × 10^4 for LS174T; and 6.0 × 10^4 for HepG2-CYP3A4 and HepG2-EV. After seeding, the cells were cultured for 24 h, then the media was removed and the cells were treated with serial dilutions of a drug or drug combination for 48 h. Vehicles containing media and 40% DMSO in media served as 100% and 0% viability controls, respectively. Upon completion of the 48 h period, the cells were washed once with 1× PBS, the media was replaced with an MTT solution in Opti-MEM (1 mg/mL), and the cells were incubated under standard conditions for 60 min. MTT solution was carefully removed and the resulting formazan crystals were immediately solubilized in DMSO. The cells were then shaken gently for 10 min, after which absorbance of their lysate was measured at 570 nm and 690 nm using a microplate reader (Infinite M200, Tecan, Salzburg, Austria); background values obtained at 690 nm were subtracted from the measurements obtained at 570 nm. This method was used to assess the effect of ABC transporters on sensitivity to ensartinib, in drug combination assays, and to identify drug concentrations appropriate for use in induction studies.
(§3) Experiments focusing on the modulation of ABC transporter-mediated resistance were performed as described previously. The parent MDCKII and HL60 cells and their ABCB1-, ABCG2-, and ABCC1-overexpressing counterparts were seeded at the densities specified above onto 96-well culture plates and cultured for 24 h. The medium was subsequently replaced with serial dilutions of ensartinib alone or with various concentrations of a model MDR-susceptible cytostatic agent (daunorubicin or mitoxantrone) with or without 10 µM ensartinib. After 48 h incubation, the cells’ viability was determined as described above. In addition to performing IC50-shift analyses, the viability measurements were converted to FA (fraction of cells affected) values and the effects of drug combinations were quantified using the Chou-Talalay combination index (CI) method as implemented in CompuSyn 3.0.1 (ComboSyn Inc., Paramus, NJ, USA). The effects of concomitantly administered drugs were classified as synergistic (CI < 0.9), additive (0.9 < CI < 1.1), or antagonistic (CI > 1.1) based on the computed CI values.

[4] = test system: HL60-parent cells; experiment: XTT proliferation / drug combination assay, HL60-parent; assay type: cell-based, human; settings: Homo sapiens, 48 h
Method: The parent MDCKII and HL60 cells and their ABCB1-, ABCG2-, and ABCC1-overexpressing counterparts were seeded at the densities specified above onto 96-well culture plates and cultured for 24 h. The medium was subsequently replaced with serial dilutions of ensartinib alone or with various concentrations of a model MDR-susceptible cytostatic agent (daunorubicin or mitoxantrone) with or without 10 µM ensartinib. After 48 h incubation, the cells’ viability was determined as described above. In addition to performing IC50-shift analyses, the viability measurements were converted to FA (fraction of cells affected) values and the effects of drug combinations were quantified using the Chou-Talalay combination index (CI) method as implemented in CompuSyn 3.0.1 (ComboSyn Inc., Paramus, NJ, USA). The effects of concomitantly administered drugs were classified as synergistic (CI < 0.9), additive (0.9 < CI < 1.1), or antagonistic (CI > 1.1) based on the computed CI values [57].

[5] = test system: HL60-ABCB1 cells; experiment: XTT proliferation / drug combination assay, HL60-ABCB1; settings: Homo sapiens, 48 h
Method: (§4) The MTT method is not readily adapted for use with suspension cell cultures, therefore the XTT assay was used to assess the proliferation of HL60 cells. Briefly, HL60-par, HL60-ABCB1, HL60-ABCG2, and HL60-ABCC1 cells were seeded at 2 × 10^4 cells/well in 96-well culture plates. Immediately after seeding, dilutions of the tested drugs or drug combinations were added to the cells. The plates were then incubated under standard conditions (37 °C, 5% CO2) for 48 h, after which XTT solution in PBS (1 mg/mL) and phenazine methosulfate (7.50 µg/mL) were added to the cells and the plates were incubated for another 5 h. Finally, the cells’ absorbance was measured at 450 nm using a microplate reader (Infinite M200, Tecan, Salzburg, Austria). This method was used to assess the effect of ABC transporters on sensitivity to ensartinib and in drug combination assays.
as §3

[6] = test system: HepG2-EV cells; experiment: Docetaxel combination assay (MTT), HepG2-EV; assay type: cell-based, human; settings: 1 µM docetaxel, <0% antagonism, =0% additivity, >0% synergism
Method: as §1, §2

[7] = test system: MDCKII-ABCG2 cells; experiment: MTT proliferation / drug combination assay, MDCKII-ABCG2; assay type: cell-based, canine; settings: Canis lupus familiaris, cytostatic alone or with 10 µM ensartinib, 48 h
Method: as §1

[8] = test system: HL60-ABCG2 cells; experiment: XTT proliferation / drug combination assay, HL60-ABCG2; assay type: cell-based, human; settings: Homo sapiens, cytostatic alone or with 10 µM ensartinib, 48 h
Method: as §4, §3

## CC(=O)O[C@@]12CO[C@@H]1C[C@H](O)[C@@]1(C)C(=O)[C@H](O)C3=C(C)[C@@H](OC(=O)[C@H](O)[C@@H](NC(=O)OC(C)(C)C)c4ccccc4)C[C@@](O)([C@@H](OC(=O)c4ccccc4)[C@H]21)C3(C)C [docetaxel]
[1]; Homo sapiens, 48 h, HepG2-CYP3A4 vs HepG2-EV, read-out: viability of CYP3A4-overexpressing cells greater than that of empty vector cells
  viability at 1 µM: 24.4%

## COc1cccc2c1C(=O)c1c(O)c3c(c(O)c1C2=O)C[C@@](O)(C(C)=O)C[C@@H]3O[C@H]1C[C@H](N)[C@H](O)[C@H](C)O1 [daunorubicin]
[2]
  IC50: 0.947 µM
[3]
  IC50: 11.9 µM
[4]
  IC50: 0.0531 µM
[5]
  IC50: 2.39 µM

## CC(=O)N1CCN(c2ccc(OCC3COC(Cn4ccnc4)(c4ccc(Cl)cc4Cl)O3)cc2)CC1 (centres unmarked) [ketoconazole]
[1]; HepG2-CYP3A4, <0% antagonism, =0% additivity, >0% synergism
  sensitization effect of combination with docetaxel: synergistic
[6]
  sensitization effect of combination with docetaxel: antagonistic

## O=C1c2c(O)ccc(O)c2C(=O)c2c(NCCNCCO)ccc(NCCNCCO)c21 [mitoxantrone]
[2]; MDCKII-parent, cytostatic alone or with 10 µM ensartinib, read-out: IC50
  IC50: 1.59 µM
[7]
  IC50: 9.98 µM
[4]; HL60-parent, cytostatic alone or with 10 µM ensartinib, read-out: IC50
  IC50: 0.0305 µM
[8]
  IC50: 0.666 µM
